Results on two substances are retold here after patent US5994055A, “HIV trans-activator Tat binding to CDK7 and activation of CTD phosphorylation” (priority 1997, dated 1999).

Where no end group is shown, it is not given here. [ ]: non-standard residue; d: D form.

Experiment [1] concerns the target T1, recombinant CAK (CDK7, cyclin H, MAT1) (Homo sapiens, UniProt P50613).
T1 construct: made in house; host or cells: Sf9 insect cells (baculovirus co-infection)
Put plainly: Kinase reaction: phosphorylation of the CTD by recombinant CAK. Type of experiment: biochemical. As for the experimental part:
Recombinant baculoviruses encoding human CDK7 (Fisher et al., Cell 78:713-724 (1994)), MAT1 (Fisher et al., Cell 83:47-57 (1995)), and an N-terminally 6-histidine tagged version of cyclin H (Kim et al., Cell 77:599-608 (1994)) were constructed as described. 4×10^9 Sf9 insect cells were co-infected with all three baculoviruses (multiplicity of infection for each virus: 5 pfu/cell), incubated 2 days at 28° C., and harvested by centrifugation. Cells were resuspended in 120 ml buffer A (20 mM Na phosphate, 25 mM NaCl, 1 mM PMSF, 1 Ag/ml leupeptin, 2 μg/ml aprotinin, 1 mM DTT (pH 7.4). NaCl concentration was raised to 300 mM and the lysate was clarified by centrifugation and loaded over tandem 5-ml Pharmacia HiTrap Chelating columns loaded with CoCl2 and preequilibrated with buffer B (300 mM NaCl, 20 mM Na phosphate, 10% glycerol (pH 7.2)). The column was washed with buffer B+1 mM DTT and eluted with a linear gradient of 0-200 mM imidazole in buffer B+1 mM DTT. Fractions containing the CAK trimer were pooled, diluted 4-fold in buffer C (20 mM Hepes-NaOH, 1 mM EDTA, 10% glycerol, 1 mM DTT (pH 7.4)), and loaded on a 5 ml Pharmacia HiTrap Q column pre-equilibrated with buffer C. The column was washed with buffer C and eluted with a linear gradient of 25-1000 mM NaCl in buffer C. […]

The next experiment concerns DHFR promoter. The experiment can be described thus: In vitro transcription from the DHFR promoter (G-less cassette). Type of experiment: biochemical. The following applies: concentration not given. On the procedure: Run-off transcription reactions from the wild-type HIV LTR and AdMLT promoters linearized with NcoI and HindIII respectively, were carried out as described (Okamoto et al., Proc. Natl. Acad. Sci. USA 93:11575-11579 (1996); Cujec et al., Mol. Cell. Biol. 17:1817-1823 (1997)). Transcription reactions containing the DHFR promoter (500 ng) fused to a G-less cassette (linearized at Nco I) were supplemented with 3 mM (NH4)2 SO4, 2% PEG 8000, 50 units of T1 RNase (Boehringer-Mannheim), 500 U of RNase inhibitor (Boehringer-Mannheim) and contained 5 μM instead of 40 μM of unlabeled UTP. Phosphocreatine, poly (d)I-(d)C, and poly(rI-rC) were omitted from the reactions.

Experiment [2] relates to Tat trans-activation of the HIV LTR. The experiment can be described thus: In vitro run-off transcription from the wild-type HIV LTR. Particulars: increasing concentrations / concentration not stated. Format: biochemical. On the procedure:
The ability of molecules to inhibit Tat trans-activation can be assessed using a variety of in vitro and in vivo assays. For example, Tat trans-activation can be assessed using in vitro run-off transcription reactions with transcription extracts (see, e.g., Current Protocols in Molecular Biology (Ausubel et al., eds., 1997)). In such an assay, nuclear transcription extracts are prepared from cultured mammalian cells according to standard procedures (see, e.g., Dignam et al., Nuc. Acids. Res. 11: 1475-1489 (1983)). Recombinant Tat protein is isolated according to standard procedures and added to the nuclear transcription extract along with the other components of the transcription reaction such as nucleotides (see, e.g., Cujec et al., supra; Example V). The reaction is also supplied with HIV promoter DNA sequences operably linked to a structural gene.
Run-off transcription reactions from the wild-type HIV LTR and AdMLT promoters linearized with NcoI and HindIII respectively, were carried out as described (Okamoto et al., Proc. Natl. Acad. Sci. USA 93:11575-11579 (1996); Cujec et al., Mol. Cell. Biol. 17:1817-1823 (1997)). […]

In experiment [3] the test system is Tat trans-activation of the HIV LTR in COS-7 cells. Put plainly: Peptide electroporation into COS-7 cells with pHIVΔKBCAT reporter, RNase protection assay. Format: cell-based.

T1 sequence (P51946 whole entry): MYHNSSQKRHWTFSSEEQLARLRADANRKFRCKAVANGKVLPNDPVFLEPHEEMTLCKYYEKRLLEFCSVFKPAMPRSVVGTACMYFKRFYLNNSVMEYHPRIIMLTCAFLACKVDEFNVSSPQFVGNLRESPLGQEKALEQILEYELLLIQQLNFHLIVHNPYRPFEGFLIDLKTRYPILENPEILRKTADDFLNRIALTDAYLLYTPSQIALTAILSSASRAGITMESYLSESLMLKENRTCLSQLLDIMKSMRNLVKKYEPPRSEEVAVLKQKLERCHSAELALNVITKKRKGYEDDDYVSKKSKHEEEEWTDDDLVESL
T1 sequence (P50613 2-346): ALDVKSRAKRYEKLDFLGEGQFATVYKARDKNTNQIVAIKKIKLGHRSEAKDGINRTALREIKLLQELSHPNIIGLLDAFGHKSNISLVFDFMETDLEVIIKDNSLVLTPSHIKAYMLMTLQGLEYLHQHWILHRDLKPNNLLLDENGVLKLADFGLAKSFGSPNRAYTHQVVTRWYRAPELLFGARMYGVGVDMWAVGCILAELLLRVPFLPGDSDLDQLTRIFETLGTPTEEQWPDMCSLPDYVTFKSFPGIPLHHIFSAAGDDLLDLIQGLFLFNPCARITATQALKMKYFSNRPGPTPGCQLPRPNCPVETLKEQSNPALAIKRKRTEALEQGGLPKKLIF
T1 sequence (P51949 whole entry, further chain): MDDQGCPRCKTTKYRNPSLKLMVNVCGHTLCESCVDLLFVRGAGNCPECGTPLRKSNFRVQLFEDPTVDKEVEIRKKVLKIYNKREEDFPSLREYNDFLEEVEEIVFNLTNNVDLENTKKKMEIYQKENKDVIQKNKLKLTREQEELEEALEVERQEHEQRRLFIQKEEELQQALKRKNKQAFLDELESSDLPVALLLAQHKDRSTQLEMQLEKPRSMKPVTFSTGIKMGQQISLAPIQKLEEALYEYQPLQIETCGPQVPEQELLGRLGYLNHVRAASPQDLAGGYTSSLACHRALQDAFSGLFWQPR

In the case of ARAFGVPVRTYAHEVVTLWYRA [mC2p], in experiment [1], the concentration for half-maximal inhibition (IC50) was determined as 1300 nM.

Consider “HARTVGVWYRAEYARFVTPaVV (HARTVGVWYRAEYARFVTP[dA]VV) [rC2p, control]”, for which the “transcription from the DHFR promoter” value with DHFR promoter is listed as “no effect”. In experiment [1] (concentration not given), the “effect on the kinase activity of CAK” value is “no effect”. The Tat trans-activation result in experiment [2] is “did not affect”. Also, the “transcription in the absence of Tat” value in experiment [3] (increasing concentrations, data not presented) is “no effect”. Besides, in experiment [3] (regardless of peptide concentration), the “ratio of long to short transcripts” value is “remained the same”.
